Source: patent publication US12239655B2, “Combined modalities for nucleosides and/or NADPH oxidase (NOX) inhibitors as myeloid-specific antiviral agents” (Emory University, priority 2017, dated 2025)

Assays:
[1] = test system: HIV; assay: HIV assay in macrophages; assay type: cell-based; settings: for EC90 / EC50: Human immunodeficiency virus 1, Macrophage, Table 5 (Example 8); for Antiviral Potency Macrophages - EC50/90: EC50 / Antiviral Potency Macrophages - EC50/90: EC90: Table 5A
Protocol: (§1) PBM cells or macrophages were incubated with various concentrations of antiviral agents for 6 days PBM cells) or […] (macrophages), followed by harvest of supernatants and quantification of extracellular HIV using the RT assay or p24 assays as previously described (Gavegnano and Schinazi et al, 2012, AAC). AZT (positive control), no drug controls, or virus alone were also performed in each assay. Assays were performed in 8 independent experiments. The Chou and Tallalay method was used to calculate the effective inhibitory concentration 50/90 as previously described (Gavegnano and Schinazi et al, 2012, AAC).

[2] = test system: HIV; assay: HIV assay in PBM cells; assay type: cell-based
Protocol: as §1

[3] = Bone marrow cytotoxicity, erythroid lineage (BFU-E); assay type: cell-based, human; settings: human; Table 8A; first value of the cell; read-out: Cytotoxicity: MTT IC50, Bone Marrow (Erythroid Lineage)
Protocol: (§2) Primary human bone marrow mononuclear cells can be obtained commercially from Cambrex Bioscience (Walkersville, MD). CFU-GM assays is carried out using a bilayer soft agar in the presence of 50 units/mL human recombinant granulocyte/macrophage colony-stimulating factor, while BFU-E assays used a […] matrix containing 1 unit/mL erythropoietin (see Sommadossi J P, Carlisle R. Toxicity of 3′-azido-3′-deoxythymidine and 9-(1,3-dihydroxy-2-propoxymethyl) guanine for normal human hepatopoietic progenitor cells in vitro. Antimicrob. Agents Chemother. 1987; 31: 452-454; Sommadossi, JP, Schinazi, RF, Chu, C K, and Xie, M Y. Comparison of cytotoxicity of the (−) and (+) enantiomer of 2′,3′-dideoxy-3′-thiacytidine in normal human bone marrow progenitor cells. Biochem. Pharmacol. 1992; 44:1921-1925). Each experiment can be performed in duplicate in cells from three different donors. AZT is used as a positive control. […] The 50% inhibitory concentration (IC50) can be obtained by least-squares linear regression analysis of the logarithm of drug concentration versus BFU-E survival fractions. Statistical analysis can be performed with Student's t test for independent non-paired samples.

[4] = Bone marrow cytotoxicity, GM lineage (CFU-GM); assay type: cell-based, human; settings: human, Table 8A, first value of the cell, read-out: Cytotoxicity: MTT IC50, Bone Marrow (GM Lineage)
Protocol: as §2

[5] = Cellular toxicity assay in Huh7 cells; assay type: cell-based; settings: human
[6] = Cellular toxicity assay in macrophages; assay type: cell-based, human; settings: human
[7] = Cellular toxicity assay in Vero cells; assay type: cell-based; settings: African green monkey
Protocol: (§3) The toxicity of the compounds was assessed in Vero, human PBM, CEM (human lymphoblastoid), MT-2, and HepG2 cells, as described previously (see Schinazi R. F., Sommadossi J.-P., Saalmann V., Cannon D. L., Xie M.-Y., Hart G. C., Smith G. A. & Hahn E. F. Antimicrob. Agents Chemother. 1990, 34, 1061-67). Cycloheximide was included as positive cytotoxic control, and untreated cells exposed to solvent were included as negative controls. The cytotoxicity IC50 was obtained from the concentration-response curve using the median effective method described previously (see Chou T.-C. & Talalay P. Adv. Enzyme Regul. 1984, 22, 27-55; Belen'kii M. S. & Schinazi R. F. Antiviral Res. 1994, 25, 1-11).

[8] = Cellular toxicity assay in CEM cells; assay type: cell-based; settings: human
Protocol: as §3

[9] = Cellular toxicity assay in PBM cells; assay type: cell-based; settings: human
Protocol: as §3

[10] = test system: Bone Marrow (Erythroid Lineage); assay: Bone marrow cytotoxicity, erythroid lineage (BFU-E); assay type: cell-based, human; settings: Table 8A; slash not defined, head says IC50
Protocol: as §2

[11] = test system: Bone Marrow (GM Lineage); assay: Bone marrow cytotoxicity, GM lineage (CFU-GM); assay type: cell-based, human; settings: Table 8A; slash not defined, head says IC50
Protocol: as §2

[12] = test system: Macrophages; assay: Cellular toxicity assay in macrophages; assay type: cell-based, human; settings: Table 8A; slash not defined, head says IC50
[13] = Human immunodeficiency virus 1, PBMC, 144 h, Table 5 (Example 8), HIV in PBM cells, 6 days, read-out: PBM Cells EC50
[14] = Table 8A, MTT, read-out: Cytotoxicity: MTT IC50, Huh7
[15] = Table 8A, first value of the cell, read-out: Cytotoxicity: MTT IC50, Macrophages
[16] = Table 8A, MTT, read-out: Cytotoxicity: MTT IC50, Vero
[17] = Table 8A, MTT, read-out: Cytotoxicity: MTT IC50, CEM
[18] = Table 8A, MTT, read-out: Cytotoxicity: MTT IC50, PBM
[19] = primary bone marrow mononuclear cells, GM lineage (CFU-GM)
[20] = Huh7 cells, Table 8A, MTT, read-out: Cytotoxicity: MTT IC50, Huh7
[21] = macrophages, Table 8A, first value of the cell, read-out: Cytotoxicity: MTT IC50, Macrophages
[22] = Vero cells, Table 8A, MTT, read-out: Cytotoxicity: MTT IC50, Vero
[23] = CEM lymphoblastoid cells, Table 8A, MTT, read-out: Cytotoxicity: MTT IC50, CEM
[24] = PBM cells, Table 8A, MTT, read-out: Cytotoxicity: MTT IC50, PBM
[25] = Table 5A, HIV in PBM cells, read-out: Antiviral Potency PBM Cells - EC50/90: EC50
[26] = macrophages, Table 8, read-out: Cytotoxicity IC50, Macrophages
[27] = Vero cells, Table 8, read-out: Cytotoxicity IC50, Vero
[28] = CEM lymphoblastoid cells, Table 8, read-out: Cytotoxicity IC50, CEM
[29] = PBM cells, Table 8, read-out: Cytotoxicity IC50, PBM
[30] = Human immunodeficiency virus 1, PBMC, Table 5A, HIV in PBM cells, read-out: Antiviral Potency PBM Cells - EC50/90: EC50

C#C[C@]1(CO)O[C@@H](n2cnc3c(N)nc(F)nc32)CC1O (some centres unmarked)
EC90 [1]: 0.01 nM

CN(C)c1cccc(-c2c3c(=O)n(-c4ccccc4Cl)[nH]c3cc(=O)n2C)c1 [drawing 73]
EC50 [2, 13]: > 100 µM
EC50 [1]: 0.03 µM
EC90 [1]: 300 nM

C#C[C@]1(COP(=O)(N[C@@H](C)C(=O)OC(C)C)Oc2ccccc2)O[C@@H](n2ccc(=O)[nH]c2=O)[C@H](O)[C@@H]1O (some centres unmarked) [drawing 66]
IC50 [3]: > 100 µM
IC50 [4]: > 100 µM
IC50 [5, 14]: > 100 µM
IC50 [6, 15]: > 100 µM
IC50 [7, 16]: > 100 µM
IC50 [8, 17]: > 100 µM
IC50 [9, 18]: > 100 µM

C#C[C@]1(CO)O[C@@H](n2cnc3c(N)nc(F)nc32)[C@H](O)[C@@H]1O [drawing 68]
IC50 [3]: 0.7 µM
Bone Marrow (Erythroid Lineage), second value after the slash [10]: 5.4 µM
IC50 [4, 19]: 0.4 µM
Bone Marrow (GM Lineage), second value after the slash [11]: 12.7 µM
IC50 [5, 20]: 11.4 µM
IC50 [6, 21]: 3.2 ± 0.3 µM
IC50 [7, 22]: 12.9 µM
IC50 [8, 23]: 1.9 µM
IC50 [9, 24]: 2.2 µM

COc1ccc(NC(=O)Nc2ccc(N)cc2)cc1 [drawing 75]
EC50 [2, 13]: > 100 µM
EC50 [1]: 0.001 µM
EC90 [1]: 100 nM

CC(=O)c1ccc2c(c1)Nc1ccccc1S2 [drawing 74]
EC50 [2, 13]: > 100 µM
EC50 [1]: 0.02 µM
EC90 [1]: 200 nM

C#C[C@]1(CO)O[C@@H](n2cnc3c(N)nc(F)nc32)C[C@@H]1O [drawing 78]
Antiviral Potency PBM Cells - EC50/90: EC90 ([2]; Table 5A, HIV in PBM cells): 0.0000001 µM
EC50 [2, 25]: 0.000000001 µM
Antiviral Potency Macrophages - EC50/90: EC50 [1]: 3e-05 nM
Antiviral Potency Macrophages - EC50/90: EC90 [1]: 7e-06 nM

C#C[C@]1(COP(=O)(N[C@@H](C)C(=O)OC(C)C)Oc2ccccc2)O[C@@H](n2ccc(=O)[nH]c2=O)[C@H](O)[C@@H]1O (some centres unmarked) [drawing 77]
EC50 ([2]; Human immunodeficiency virus 1, PBMC, read-out: Antiviral Potency PBM Cells - EC50/90: EC50): > 10 µM
Antiviral Potency Macrophages - EC50/90: EC50 [1]: 0.1 ± 6 nM
Antiviral Potency Macrophages - EC50/90: EC90 [1]: 9 ± 7 nM

O=c1c2cc(F)ccc2sn1-c1ccc2c(c1)OCO2 [drawing 81]
Antiviral Potency PBM Cells - EC50/90: EC90 ([2]; Table 5A, HIV in PBM cells): 12.9 µM
EC50 [2, 25]: 0.7 µM
Antiviral Potency Macrophages - EC50/90: EC50 [1]: 9 nM
Antiviral Potency Macrophages - EC50/90: EC90 [1]: 300 nM

C#C[C@]1(CO)O[C@@H](n2cnc3c(N)nc(F)nc32)C[C@@H]1O [drawing 67]
IC50 [3]: 2.4 µM
Bone Marrow (Erythroid Lineage), second value after the slash [10]: 8.6 µM
IC50 [4, 19]: 1.9 µM
Bone Marrow (GM Lineage), second value after the slash [11]: 22.4 µM
Macrophages, second value after the slash [12]: 9.2 µM
IC50 [6, 21]: 21 µM
IC50 [7, 22]: 3.2 µM
IC50 [8, 23]: 1.7 µM
IC50 [9, 24]: 2.9 µM

C#C[C@]1(CO)O[C@@H](n2cnc3c(N)nc(F)nc32)[C@H](O)[C@@H]1O [drawing 61]
IC50 [6, 26]: 0.7 µM
IC50 [7, 27]: > 100 µM
IC50 [8, 28]: 52 µM
IC50 [9, 29]: 3.2 µM

C#C[C@]1(CO)O[C@@H](n2cnc3c(N)nc(F)nc32)C[C@@H]1O [drawing 60]
IC50 [6, 26]: 2.4 µM
IC50 [7, 27]: ≥ 100 µM
IC50 [8, 28]: 6.8 µM
IC50 [9, 29]: 1.1 µM

C#C[C@]1(CO)O[C@@H](n2cnc3c(N)nc(F)nc32)C(O)C1O (some centres unmarked)
EC90 ([2]; Human immunodeficiency virus 1, PBMC, 144 h, Table 5 (Example 8), HIV in PBM cells, 6 days): 19.1 µM
EC50 [2, 13]: 3.2 µM
EC50 [1]: 0.001 µM
EC90 [1]: 20 nM

CC(=O)c1ccc2c(c1)Nc1ccccc1S2 [drawing 63]
IC50 [6, 26]: > 10 µM
IC50 [9, 29]: > 100 µM

CN(C)c1cccc(-c2c3c(=O)n(-c4ccccc4Cl)[nH]c3cc(=O)n2C)c1 [drawing 62]
IC50 [6, 26]: > 10 µM
IC50 [9, 29]: > 100 µM

C#C[C@]1(CO)O[C@@H](n2ccc(=O)[nH]c2=O)[C@H](O)[C@@H]1O [drawing 76]
EC50 [2, 30]: > 10 µM
Antiviral Potency Macrophages - EC50/90: EC50 [1]: 16600 ± 3200 nM
Antiviral Potency Macrophages - EC50/90: EC90 [1]: > 100000 nM

C#C[C@]1(CO)O[C@@H](n2cnc3c(N)nc(F)nc32)[C@H](O)[C@@H]1O [drawing 79]
EC50 [2, 30]: 1.8 µM
Antiviral Potency Macrophages - EC50/90: EC50 [1]: 1 ± 2 nM
Antiviral Potency Macrophages - EC50/90: EC90 [1]: 20 ± 10 nM

C#C[C@]1(CO)O[C@@H](n2ccc(=O)[nH]c2=O)[C@H](O)[C@@H]1O [drawing 65]
IC50 [3]: > 100 µM
IC50 [4, 19]: > 100 µM
IC50 [5, 20]: > 100 µM
IC50 [6, 21]: > 100 µM
IC50 [7, 22]: > 100 µM
IC50 [8, 23]: > 100 µM
IC50 [9, 24]: > 100 µM

C[C@@H]1C[C@@H]([C@H](O)CC2CC(=O)NC(=O)C2)C(=O)[C@@H](C)C1
IC50 [5, 14]: 0.9 µM
IC50 [6, 15]: 6.9 ± 0.9 µM
IC50 [7, 16]: 0.7 µM
IC50 [8, 17]: 0.06 µM
IC50 [9, 18]: 2.5 µM

O=c1c2cc(F)ccc2sn1-c1ccc2c(c1)OCO2 [drawing 70]
IC50 ([5]; Huh7 cells, Table 8B, MTT/MTS (head line), read-out: Cytotoxicity: IC50, Huh7): 379 ± 19.2 µM
IC50 ([7]; Vero cells, Table 8B, MTT (head line), read-out: Cytotoxicity: IC50, Vero): 20.1 µM
IC50 ([8]; CEM lymphoblastoid cells, Table 8B, MTT (head line), read-out: Cytotoxicity: IC50, CEM): 3.7 µM
IC50 ([9]; PBM cells, Table 8B, MTS (head line), read-out: Cytotoxicity: IC50, PBM): 58.3 ± 10.9 µM

COc1ccc(NC(=O)Nc2ccc(N)cc2)cc1 [drawing 64]
IC50 [6, 26]: > 10 µM
IC50 [9, 29]: > 100 µM
